Assay results from patent publication US5254584A, “N-acetonylbenzamides and their use as fungicides” (Rohm and Haas Company, priority 1992, dated 1993).
≈ marks a conversion by molar mass, not a printed value.

Assays:
[1] = system: Pythium ultimum; assay: Fungitoxicity assay against Pythium ultimum (in vitro, mycelial dry weight); type: cell-based; conditions: Globisporangium ultimum, 48 hours at 25° C., read-out: Pythium EC50
Experimental: The compounds of Examples 1-20 were tested in vitro for fungicidal activity and phytotoxicity. A. The compounds were tested in vitro for fungicidal activity against Pythium ultimum, Botrytis cinerea and Venturia inaequalis. Fungitoxicity assay against Pythium ultimum: A dilution series of test compound was prepared in dimethylsulfoxide, and 0.1 milliliter (ml) of each dilution was added to 19.9 ml of a liquid asparagine-sucrose broth ([…]. and Katznelson, K., 1971, Can. J. […] Each plate was inoculated with a mycelial plug, 7 millimeters (mm) in diameter, taken from the growing edge of a culture of Pythium ultimum grown on potato dextrose agar. Two replicate plates were used for each treatment. The increase in mycelial dry weight was determined after growth for 48 hours at 25° C. with shaking on a gyrotary shaker at 60 revolutions per minute (rpm). EC50 values were calculated from dose response curves. As used herein, the terminology "EC50" means the concentration of test compound required to inhibit growth by 50% as compared to a control lacking the test compound. Results of the testing for fungicidal activity against the above named fungi are set forth below in Table 3 as Pythium EC50 (ppm), Botrytis EC50 (ppm) and Venturia MIC (ppm), respectively.

[2] = system: Botrytis cinerea; assay: Fungitoxicity assay against Botrytis cinerea (in vitro, colony diameter); type: cell-based; conditions: 48 hours at 25° C., read-out: Botrytis EC50
Experimental: The compounds of Examples 1-20 were tested in vitro for fungicidal activity and phytotoxicity. A. The compounds were tested in vitro for fungicidal activity against Pythium ultimum, Botrytis cinerea and Venturia inaequalis. Fungitoxicity assay against Botrytis cinerea: […] The mixtures were poured immediately into 9 centimeter (cm) diameter petri dishes. Two replicate plates were used for each treatment. Each plate was inoculated with a 7 mm diameter plug taken from the growing edge of a 5 day old culture of B. cinerea on potato dextrose agar. […] Results of the testing for fungicidal activity against the above named fungi are set forth below in Table 3 as Pythium EC50 (ppm), Botrytis EC50 (ppm) and Venturia MIC (ppm), respectively.

[3] = system: Venturia inaequalis; assay: Fungitoxicity assay against Venturia inaequalis (in vitro, microtiter MIC); type: cell-based; conditions: 168 h, minimum inhibitory concentration, 7 days at 25° C.
Experimental: The compounds of Examples 1-20 were tested in vitro for fungicidal activity and phytotoxicity. A. The compounds were tested in vitro for fungicidal activity against Pythium ultimum, Botrytis cinerea and Venturia inaequalis. Fungitoxicity assay against Venturia inaequalis: Test compounds were dissolved in dimethylsulfoxide at 1 milligram per milliliter (mg/ml), and 50 ul added to 950 ul of yeast extract-dextrose medium (YED, 0.4% yeast extract, 2% dextrose) to give 50 part per million (ppm) solutions. Minimum inhibitory concentration (MIC) values were determined using a microtiter assay with twofold serial dilutions of the prepared 50 ppm solutions (100 ul) in YED medium. Inoculum consisted of a spore suspension of V. inaequalis in YED medium at 2.5×10^5 spores per ml. […] Results of the testing for fungicidal activity against the above named fungi are set forth below in Table 3 as Pythium EC50 (ppm), Botrytis EC50 (ppm) and Venturia MIC (ppm), respectively.

[4] = system: bean plants; assay: In vivo phytotoxic activity, foliar spray, bean; design: key: +: indicating presence of a plant growth regulatory effect as compared to a control to which a solvent mixture (acetone/water/methanol) lacking the test compound was applied; 0: A zero indicates no apparent effect; conditions: foliar spray 2200 g/Ha, seven days after application
Experimental: (§1) The compounds of Examples 1 and 12 were tested in vivo for phytotoxic activity by applying the compounds to the foliage of cucumber, tomato, bean, lettuce and strawberry plants as a spray at a rate of 2200 g/Ha. The plants were evaluated seven days after spray application of the compounds.
(§2) Phototoxicity scores are set forth below in Table 6. The phytotoxicity scores use a symbol, "+", indicating presence of a plant growth regulatory effect as compared to a control to which a solvent mixture (acetone/water/methanol) lacking the test compound was applied. A zero indicates no apparent effect. Each score is a composite representing the mode value for three replicate plants.

[5] = Tobacco root assay for phytotoxicity (in vitro root elongation); conditions: 7 days, 27° C., read-out: Tob. EC50
Experimental: The compounds of Examples 1-20 were tested in vitro for fungicidal activity and phytotoxicity.
B. The compounds were tested in vitro for phytotoxicity in a tobacco root elongation assay.
Tobacco root assay for Phytotoxicity:
A dilution series of test compound was prepared in dimethylsulfoxide and 20 ul of each dilution was added to 20 ml of molten nutrient medium, consisting of Murashige and Skoog salt base, 2% sucrose and 1% agar, to give the desired concentrations of test compound. The mixtures were poured immediately into 9 cm diameter petri dishes. Surface-sterilized tobacco seeds were placed on each plate (20 seeds per plate) and the plates incubated in a vertical position in a 27° C. incubator with a 16 hour photoperiod. After 7 days the mean root lengths were calculated, and EC50 values determined from dose response curves.
Results of the tobacco root assay are set forth below in Table 3 as Tob. EC50 (ppm).

[6] = system: tomato plants; assay: In vivo phytotoxic activity, foliar spray, tomato; design: key: +: indicating presence of a plant growth regulatory effect as compared to a control to which a solvent mixture (acetone/water/methanol) lacking the test compound was applied; 0: A zero indicates no apparent effect; conditions: foliar spray 2200 g/Ha, seven days after application
Experimental: as §1, §2

[7] = system: lettuce plants; assay: In vivo phytotoxic activity, foliar spray, lettuce; design: key: +: indicating presence of a plant growth regulatory effect as compared to a control to which a solvent mixture (acetone/water/methanol) lacking the test compound was applied; 0: A zero indicates no apparent effect; conditions: foliar spray 2200 g/Ha, seven days after application
Experimental: as §1, §2

[8] = system: strawberry plants; assay: In vivo phytotoxic activity, foliar spray, strawberry; design: key: +: indicating presence of a plant growth regulatory effect as compared to a control to which a solvent mixture (acetone/water/methanol) lacking the test compound was applied; 0: A zero indicates no apparent effect; conditions: foliar spray 2200 g/Ha, seven days after application
Experimental: as §1, §2

[9] = system: cucumber plants; assay: In vivo phytotoxic activity, foliar spray, cucumber; design: key: +: indicating presence of a plant growth regulatory effect as compared to a control to which a solvent mixture (acetone/water/methanol) lacking the test compound was applied; 0: A zero indicates no apparent effect; conditions: foliar spray 2200 g/Ha, seven days after application
Experimental: as §1, §2

[10] = system: Pseudocercosporella herpotrichoides; assay: microbe, parasite or virus in culture; type: cell-based; conditions: Oculimacula yallundae, 72 h, 3 days at room temperature, read-out: PSH percent inhibition of fungal growth
[11] = system: Cercospora beticola; assay: microbe, parasite or virus in culture; type: cell-based; conditions: 72 h, 3 days at room temperature, read-out: CER percent inhibition of fungal growth
[12] = system: Rhizoctonia solani; assay: microbe, parasite or virus in culture; type: cell-based; conditions: 72 h, 3 days at room temperature, read-out: RHI percent inhibition of fungal growth
[13] = system: Colletotrichum lagenarium; assay: microbe, parasite or virus in culture; type: cell-based; conditions: Colletotrichum orbiculare, 72 h, 3 days at room temperature, read-out: COL percent inhibition of fungal growth
[14] = system: Pythium ultimum; assay: microbe, parasite or virus in culture; type: cell-based; conditions: Globisporangium ultimum, 72 h, 3 days at room temperature, read-out: PYU percent inhibition of fungal growth
[15] = system: Fusarium roseum; assay: microbe, parasite or virus in culture; type: cell-based; conditions: Fusarium sambucinum, 72 h, read-out: FUS percent inhibition of fungal growth
[16] = system: Phytophthora capsici; assay: microbe, parasite or virus in culture; type: cell-based; conditions: 72 h, 3 days at room temperature, read-out: PHY percent inhibition of fungal growth
[17] = system: Monilinia fructicol; assay: microbe, parasite or virus in culture; type: cell-based; conditions: 72 h, 3 days at room temperature, read-out: MON percent inhibition of fungal growth
[18] = system: Piricularia oryzae; assay: organism not typed; type: cell-based; conditions: 72 h, read-out: PIR percent inhibition of fungal growth
[19] = system: Botrytis cinerea; assay: microbe, parasite or virus in culture; type: cell-based; conditions: 72 h, 3 days at room temperature, read-out: BOC percent inhibition of fungal growth

| SMILES | IC50 [1] [µg/mL] | IC50 [2] [µg/mL] | MIC [3] [µg/mL] | IC50 at 168 h [5] [µg/mL] | other results |
| --- | --- | --- | --- | --- | --- |
| CCC(C)(NC(=O)c1cc(C)cc(C=NO)c1)C(=O)CCl (stereo not shown) [Example 18] | 5.95 (≈ 19.1 µM) | 53.9 (≈ 173 µM) | > 25 | – | – |
| CCC(C)(NC(=O)c1cccc(C=NOC)c1)C(=O)CCl (stereo not shown) [Example 1, 3-(3'-Methoxyiminomethylbenzamido)-1-chloro-3-methylpentan-2-one] | 0.31 (≈ 0.997 µM) | 9.5 (≈ 30.6 µM) | 1.56 (≈ 5.02 µM) | 1.86 (≈ 5.98 µM) | phytotoxicity score, Bean [4]: 0; phytotoxicity score, Tomato [6]: 0; phytotoxicity score, Lettuce [7]: 0; phytotoxicity score, Strawberry [8]: +; phytotoxicity score, Cucumber [9]: 0 |
| CCC(C)(NC(=O)c1ccc(C(C)=NOC)cc1)C(=O)CCl (stereo not shown) [Example 19, 3-(4'-Methoxyiminomethyl(methyl)benzamido)-1-chloro-3-methylpentan-2-one] | > 10 | > 100 | > 25 | – | – |
| CCC(C)(NC(=O)c1cc(C=NOC)cc(C=NOC)c1)C(=O)CCl (stereo not shown) [Example 15, N-[3'-(1'-chloro-3'-methyl-2'-oxopentan)]-3,5-dimethoxyiminomethylbenzamide] | 4.16 (≈ 11.3 µM) | 4.19 (≈ 11.4 µM) | 1.56 (≈ 4.24 µM) | 2.33 (≈ 6.33 µM) | – |
| CCC(C)(NC(=O)c1cc(Cl)cc(C=NOC)c1)C(=O)CCl (stereo not shown) [Example 9, N-[3'-(1'-chloro-3'-methyl-2'-oxopentan)]-3-chloro-5-methoxyiminomethylbenzamide] | 0.05 (≈ 0.145 µM) | 0.25 (≈ 0.724 µM) | 0.05 (≈ 0.145 µM) | 0.06 (≈ 0.174 µM) | inhibition at 25 ppm [10]: 100%; inhibition at 25 ppm [11]: 100%; inhibition at 25 ppm [12]: 90%; inhibition at 25 ppm [13]: 90%; inhibition at 25 ppm [14]: 100%; inhibition at 25 ppm [15]: 75%; inhibition at 25 ppm [16]: 100%; inhibition at 25 ppm [17]: 100%; inhibition at 25 ppm [18]: 100%; inhibition at 25 ppm [19]: 90% |
| CCC(C)(NC(=O)c1cccc(C=NOCC(=O)OC)c1)C(=O)CCl (stereo not shown) [Example 7] | 22.8 (≈ 61.8 µM) | > 100 | > 25 | 9.48 (≈ 25.7 µM) | – |
| CCC(C)(NC(=O)c1ccc(Cl)c(C=NOC)c1)C(=O)CCl (stereo not shown) [Example 14, N-[3'-(1'-chloro-3'-methyl-2'-oxopentan)]-4-chloro-3-methoxyiminomethylbenzamide] | 4.68 (≈ 13.6 µM) | 28.1 (≈ 81.4 µM) | 25 (≈ 72.4 µM) | 1.25 (≈ 3.62 µM) | – |
| CCON=Cc1cccc(C(=O)NC(C)(CC)C(=O)CCl)c1 (stereo not shown) [Example 3] | 2.07 (≈ 6.37 µM) | 21.8 (≈ 67.1 µM) | 6.25 (≈ 19.2 µM) | 5.35 (≈ 16.5 µM) | – |
| CON=Cc1cccc(C(=O)NC(C)(C)C(=O)CCl)c1 [Example 2, 3-(3'-Methoxyiminomethylbenzamido)-1-chloro-3-methylbutan-2-one] | 1.61 (≈ 5.43 µM) | 71.3 (≈ 240 µM) | 12.5 (≈ 42.1 µM) | 4.94 (≈ 16.6 µM) | – |
